Assay [1] deals with cGAS activity in Reporter THP1 cell line. Briefly: Cellular assay to measure cGAS activity: ISRE-Gaussia luciferase reporter THP1 cells transfected with ISD. Particulars: Homo sapiens, THP-1, untitled table after Table 4 (continuation). Type of assay: cell-based. The method, then: Cellular assay to measure cGAS activity: Reporter THP1 cell line harboring a gene encoding Gaussia Luciferase under the control of 5 tandem repeats of interferon-stimulated response elements (ISRE) fused to an ISG54 minimal promoter was used to test inhibition of cGAS activity by synthetic compounds in human cells. These cells were plated on 96-well plates at 0.3×10^6/well and incubated with serial dilutions of compounds or DMSO for 5 min, followed by transfection of 2 μg/mL of ISD (Interferon Stimulatory DNA, a 45 bp DNA oligo) or mock transfected using lipofectamine 2000 (Life Technology) method, according to manufacturer's instructions. 16 hours later, 15 μL of the media from each well was transferred to a new plate, 50 μL of solution containing 50 mM Hepes-NaOH, pH 6.5, 50 mM NaCl, 10 mM EDTA, 1 μM of coelenterazine was added to each well and luminescence was measured immediately. Fold increase in luminescence compared to mock transfection was plotted against concentrations of each compound, and IC50 is calculated using Graphpad. To evaluate the specificity of a compound, the same procedure was performed except that cells were transfected with 2 μg/mL poly(I:C) or infected with Sendai Virus (SeV) at 50 Unit/mL, which are known to activate the RIG-I-MAVS pathway. A specific inhibitory compound should inhibit interferon induction by DNA but have minimal effect on poly(I:C) or Sendai virus induced interferon reporter gene expression.
The letter codes for cGAS IC50 include: A (<2 μM); B (2-10 μM); C (>10 μM).

Assay [2] deals with T1, recombinant human cGAS (aa147-522) (Homo sapiens, UniProt Q8N884).
T1 construct: recombinant human cGAS (aa147-522); His6-SUMO (cleaved yes); made in house; host or cells: E. coli BL21/pLys
Briefly: In vitro inhibition assay of cGAS activity (ATP consumption, KinaseGlo Max). The assay is classed as biochemical. Particulars: Table 3, read-out: cGAS Inhibition Results IC50. The gist of the method: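 IC50 came from plotting % ATP consumption against log compound concentration, with leftover ATP detected by KinaseGlo Max chemiluminescence. Reactions ran 20 min at 37 °C with 1.5 μg/mL human cGAS (aa147-522), 6.6 μM ATP, 0.1 mM GTP and 0.01 mg/mL DNA at pH 7.5.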

T1 sequence (Q8N884 147-522): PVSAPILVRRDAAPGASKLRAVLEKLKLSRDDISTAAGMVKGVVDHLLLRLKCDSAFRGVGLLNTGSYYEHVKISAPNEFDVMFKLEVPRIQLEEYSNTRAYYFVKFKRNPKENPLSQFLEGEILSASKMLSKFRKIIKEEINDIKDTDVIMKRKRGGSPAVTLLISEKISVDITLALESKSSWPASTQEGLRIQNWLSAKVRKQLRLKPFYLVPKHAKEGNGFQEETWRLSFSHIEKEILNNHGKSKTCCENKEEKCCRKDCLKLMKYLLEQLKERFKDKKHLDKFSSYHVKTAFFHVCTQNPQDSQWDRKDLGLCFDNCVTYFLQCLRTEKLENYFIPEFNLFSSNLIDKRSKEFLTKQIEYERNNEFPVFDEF

On to `O=C(O)CCOC[C@@H]1[C@@H]2CC2CN1c1cc(-n2ccnc2)c2ccc(Cl)c(Cl)c2n1` (stereo in doubt) [I-809], for which the IC50 in assay [1] was < 2000 nM. Consider `O=C(O)CCCCCOC[C@@H]1CCCN1c1cc(-n2ccnc2)c2ccc(Cl)c(Cl)c2n1` [I-675, (S)-6-((1-(7,8-dichloro-4-(1H-imidazol-1-yl)quinolin-2-yl)pyrrolidin-2-yl)methoxy)hexanoic acid], for which the concentration for half-maximal inhibition (IC50) in assay [2] is < 2000 nM. The same measure, in the same setting: then `O=C(O)COC[C@@H]1[C@@H](O)CCN1c1cc(-n2ccnc2)c2ccc(Cl)c(Cl)c2n1` [I-697], with < 2000 nM; and `O=C(O)CCO[C@H]([C@@H]1CCCN1c1cc(-n2ccnc2)c2ccc(Cl)c(Cl)c2n1)C(F)(F)F` [I-721], with 2000 to 30000 nM; and `O=C(O)c1ccnn1C[C@@H]1CCCN1c1cc(-n2ccnc2)c2ccc(Cl)c(Cl)c2n1` [I-727, (S)-1-((1-(7,8-dichloro-4-(1H-imidazol-1-yl)quinolin-2-yl)pyrrolidin-2-yl)methyl)-1H-pyrazole-5-carboxylic acid], with < 2000 nM. Consider `O=C(O)c1ccnn1CC[C@@H]1CCCN1c1cc(-n2ccnc2)c2ccc(Cl)c(Cl)c2n1` [I-729], for which the IC50 in assay [2] was < 2000 nM.

As for `O=C(O)c1ccn(CC[C@@H]2CCCN2c2cc(-n3ccnc3)c3ccc(Cl)c(Cl)c3n2)n1` [I-731], the IC50 in assay [2] was < 2000 nM.

In the case of `O=C(O)c1ccc(OC[C@@H]2CCCN2c2cc(-n3ccnc3)c3ccc(Cl)c(Cl)c3n2)cc1` [I-737], the concentration for half-maximal inhibition (IC50) in assay [2] was < 2000 nM.

Regarding `O=C(O)Cc1ccc(OC[C@@H]2CCCN2c2cc(-n3ccnc3)c3ccc(Cl)c(Cl)c3n2)cc1` [I-738], the IC50 in assay [2] was < 2000 nM. As for `O=C(O)COC[C@H]1CCCN(c2cc(-c3cn[nH]c3)c3ccc(Cl)c(Cl)c3n2)C1` [I-746], the IC50 in assay [2] is < 2000 nM. Still for that read-out and setting: then `CN(CCC(=O)O)C[C@@H]1CCCN1c1cc(-n2ccnc2)c2ccc(Cl)c(Cl)c2n1` [I-754, (S)-3-(((1-(7,8-dichloro-4-(1H-imidazol-1-yl)quinolin-2-yl)pyrrolidin-2-yl)methyl)(methyl)amino)propanoic acid], with 2000 to 30000 nM; and `COC(=O)CCN(CCC(=O)OC)C[C@@H]1CCCN1c1cc(-n2ccnc2)c2ccc(Cl)c(Cl)c2n1` [I-757, dimethyl 3,3′-(((1-(7,8-dichloro-4-(1H-imidazol-1-yl)quinolin-2-yl)pyrrolidin-2-yl)methyl)azanediyl)(S)-dipropionate], with 2000 to 30000 nM; and `O=P(O)(O)CCOC[C@@H]1CCCN1c1cc(-n2ccnc2)c2ccc(Cl)c(Cl)c2n1` [I-763, (S)-(2-((1-(7,8-dichloro-4-(1H-imidazol-1-yl)quinolin-2-yl)pyrrolidin-2-yl)methoxy)ethyl)phosphonic acid], with < 2000 nM. Still for that read-out and setting: then `O=C(O)CO[C@@H]1CCN(c2cc(-n3ccnc3)c3ccc(Cl)c(Cl)c3n2)C1` [I-766], with < 2000 nM; and `O=C(O)CCO[C@@H]1CCN(c2cc(-n3ccnc3)c3ccc(Cl)c(Cl)c3n2)C1` [I-767], with 2000 to 30000 nM; and `COC(=O)CO[C@@H]1CCN(c2cc(-n3ccnc3)c3ccc(Cl)c(Cl)c3n2)C1` [I-768], with 2000 to 30000 nM.

As for `COC(=O)CCO[C@@H]1CCN(c2cc(-n3ccnc3)c3ccc(Cl)c(Cl)c3n2)C1` [I-769], the IC50 in assay [2] was 2000 to 30000 nM. The same measure, in the same setting: then `O=C(O)CO[C@H]1CCN(c2cc(-n3ccnc3)c3ccc(Cl)c(Cl)c3n2)C1` [I-770], with < 2000 nM; and `O=C(O)CCO[C@H]1CCN(c2cc(-n3ccnc3)c3ccc(Cl)c(Cl)c3n2)C1` [I-771], with 2000 to 30000 nM. Still for that read-out and setting: then `O=C(O)CCOC[C@H]1CCN(c2cc(-n3ccnc3)c3ccc(Cl)c(Cl)c3n2)C1` [I-772], with 2000 to 30000 nM; and `O=C(O)[C@@H]1CC[C@@H](CCO)N1c1cc(-n2ccnc2)c2ccc(Cl)c(Cl)c2n1` [I-783, (2S,5S)-1-(7,8-dichloro-4-(1H-imidazol-1-yl)quinolin-2-yl)-5-(2-hydroxyethyl)pyrrolidine-2-carboxylic acid], with < 2000 nM.

Regarding `O=C(O)CCOC[C@H]1CCCCN1c1cc(-n2ccnc2)c2ccc(Cl)c(Cl)c2n1` [I-790], the IC50 in assay [2] was 2000 to 30000 nM. The same measure, in the same setting: then `O=C(O)CCOC[C@@H]1CCC(=O)N1c1cc(-n2ccnc2)c2ccc(Cl)c(Cl)c2n1` [I-812, (S)-3-((1-(7,8-dichloro-4-(1H-imidazol-1-yl)quinolin-2-yl)-5-oxopyrrolidin-2-yl)methoxy)propanoic acid], with < 2000 nM; and `O=C(O)CCOC(C(=O)O)[C@@H]1CCCN1c1cc(-n2ccnc2)c2ccc(Cl)c(Cl)c2n1` (stereo partly drawn) [I-818], with 2000 to 30000 nM. On the same count and under the same terms, then `O=C(O)C#CC[C@@H]1CCCN1c1cc(-n2ccnc2)c2ccc(Cl)c(Cl)c2n1` [I-819, (S)-4-(1-(7,8-dichloro-4-(1H-imidazol-1-yl)quinolin-2-yl)pyrrolidin-2-yl)but-2-ynoic acid], with < 2000 nM; and `O=C(O)CCOC[C@@H]1CCCN1c1cc(N2CC[C@@H](O)C2)c2ccc(Cl)c(Cl)c2n1` [I-821, 3-(((S)-1-(7,8-dichloro-4-((R)-3-hydroxypyrrolidin-1-yl)quinolin-2-yl)pyrrolidin-2-yl)methoxy)propanoic acid], with > 30000 nM.

For `Nc1ccc(-c2cc(N3CCC[C@H]3COCCC(=O)O)nc3c(Cl)c(Cl)ccc23)cn1` [I-822, (S)-3-((1-(4-(6-aminopyridin-3-yl)-7,8-dichloroquinolin-2-yl)pyrrolidin-2-yl)methoxy)propanoic acid], the IC50 in assay [2] is > 30000 nM. The same measure, in the same setting: then `O=C(O)CCOC[C@@H]1CCCN1c1cc(-c2cc[nH]n2)c2ccc(Cl)c(Cl)c2n1` [I-823], with > 30000 nM; and `O=C(O)CCOC[C@@H]1CCCN1c1cc(-c2ccoc2)c2ccc(Cl)c(Cl)c2n1` [I-824], with > 30000 nM.

Regarding `Cc1cn(-c2cc(N3CCC[C@H]3COCCC(=O)O)nc3c(Cl)c(Cl)ccc23)cn1` [I-825, (S)-3-((1-(7,8-dichloro-4-(4-methyl-1H-imidazol-1-yl)quinolin-2-yl)pyrrolidin-2-yl)methoxy)propanoic acid], the IC50 in assay [2] was > 30000 nM. On to `Cn1cc(-c2cc(N3CCC[C@H]3COCCC(=O)O)nc3c(Cl)c(Cl)ccc23)cn1` [I-826], for which the IC50 in assay [2] was > 30000 nM. As to `O=C(O)CCOC[C@@H]1CCCN1c1ccc2ccc(Cl)c(Cl)c2n1` [I-827], the IC50 in assay [2] is > 30000 nM. `CN(CCCOc1ccc(Cl)cc1C(=O)O)c1cc(-n2ccnc2)c2ccc(Cl)c(Cl)c2n1` [I-847]: the IC50 in assay [2] fell in the range of 2000 to 30000 nM. On the same count and under the same terms, then `CC(C)N(CCCOc1ccc(Cl)cc1C(=O)O)c1cc(-n2ccnc2)c2ccc(Cl)c(Cl)c2n1` [I-848, 5-chloro-2-(3-((7,8-dichloro-4-(1H-imidazol-1-yl)quinolin-2-yl)(isopropyl)amino)propoxy) benzoic acid], with 2000 to 30000 nM.

Regarding `COc1ccc(OCCCN(c2cc(-n3ccnc3)c3ccc(Cl)c(Cl)c3n2)C(C)C)c(C(=O)O)c1` [I-849], the IC50 in assay [2] was 2000 to 30000 nM. `CC(C)N(CCCOc1cccc(F)c1C(=O)O)c1cc(-n2ccnc2)c2ccc(Cl)c(Cl)c2n1` [I-850]: the IC50 in assay [2] fell in the range of 2000 to 30000 nM. Still for that read-out and setting: then `CC(C)N(CCCOc1ccncc1C(=O)O)c1cc(-n2ccnc2)c2ccc(Cl)c(Cl)c2n1` [I-851], with 2000 to 30000 nM.

In the case of `CC(C)N(CCCOc1ccccc1C(=O)O)c1cc(-n2ccnc2)c2ccc(Cl)c(Cl)c2n1` [I-852], the IC50 in assay [2] fell in the range of 2000 to 30000 nM. With `CC(C)(C)c1ccc2c(-n3ccnc3)cc(N3CCC[C@H]3COCCC(=O)O)nc2c1` [I-858], the concentration for half-maximal inhibition (IC50) in assay [2] was > 30000 nM. For the compound `COc1cccc2c(-c3cn[nH]c3)cc(N3CCC[C@H]3COCCC(=O)O)nc12` [I-859], in assay [2], the IC50 is 2000 to 30000 nM. On to `CCOc1c(Cl)ccc2c(-n3ccnc3)cc(N3CCC[C@H]3COCCC(=O)O)nc12` [I-861], for which, in assay [2], the concentration for half-maximal inhibition (IC50) was > 30000 nM. On the same count and under the same terms, then `O=C(O)CCOC[C@@H]1CCCN1c1cc(-n2ccnc2)c2ccc(Cl)c(-c3ccccc3)c2n1` [I-863, (S)-3-((1-(7-chloro-4-(1H-imidazol-1-yl)-8-phenylquinolin-2-yl)pyrrolidin-2-yl)methoxy)propanoic acid], with > 30000 nM; and `COC(=O)[C@@H]1C[C@@H](OCCC(=O)O)CN1c1cc(-n2ccnc2)c2ccc(Cl)c(Cl)c2n1` [I-869], with 2000 to 30000 nM; and `COC(=O)[C@@H]1[C@@H](OCCC(=O)O)CCN1c1cc(-n2ccnc2)c2ccc(Cl)c(Cl)c2n1` [I-870], with 2000 to 30000 nM.

For `COC(=O)[C@@H]1C[C@H](OCCC(=O)O)CN1c1cc(-n2ccnc2)c2ccc(Cl)c(Cl)c2n1` [I-871], the IC50 in assay [2] lay in the range of 2000 to 30000 nM. On the same count and under the same terms, then `O=C(O)CCOCC(CO)Nc1cc(-n2ccnc2)c2ccc(Cl)c(Cl)c2n1` (stereo not drawn) [I-873], with < 2000 nM; and `O=C(O)CCOCC(COCCC(=O)O)Nc1cc(-n2ccnc2)c2ccc(Cl)c(Cl)c2n1` [I-874], with < 2000 nM; and `O=C(O)Cc1csc(CNc2cc(-n3ccnc3)c3ccc(Cl)c(Cl)c3n2)n1` [I-881], with < 2000 nM.

Source of the values: patent US11873291B2, “Quinoline cGAS antagonist compounds” (ImmuneSensor Therapeutics, Inc., priority 2020, dated 2024).
